In patent publication US9969744B2, “Compounds for use in cognition improvement” (FUNDACIÓN PARA LA INVESTIGACIÓN MÉDICA APLICADA, priority 2014, dated 2018):
Marks after values point to notes of the source that are not given here.

Experiments:
PDE5A1 = biological target: T1, PDE5A1 (Homo sapiens, UniProt O76074); experiment: PDE enzyme activity assay (HTRF cGMP), PDE5A; type: biochemical; conditions: recombinant enzyme; read-out: PDE5A1 inhibition (IC50)
T1 construct: they are full-length with N-terminal GST tag; GST (N); purchased BPS Biosciences 60050; host or cells: baculovirus infected Sf9 cells

pCREB = experiment: In-vivo pCREB in hippocampus of wild type mice; conditions: 1 h after single dose 40 mg/kg i.p.
Description: (§1) Another group of animals received the vehicle (1/1/8, v:v:v, DMSO/Tween 20/saline). One hour later, mice were sacrificed by cervical dislocation and their hippocampus was quickly dissected from the brains. Total tissue homogenates were obtained by homogenizing the hippocampus in a cold lysis buffer with protease inhibitors (0.2 M NaCl, 0.1 M HEPES, 10% glycerol, 200 mM NaF, 2 mM Na4P2O7, 5 mM EDTA, 1 mM EGTA, 2 mM DTT, 0.5 mM PMSF, 1 mM Na3VO4 and Complete Protease Inhibitor Cocktail, Roche Diagnostics). The homogenate was then centrifuged at 14,000×g at 4° C. for 20 min and the supernatant aliquoted and stored at −80° C. Total protein concentrations were determined using the BioRad Bradford protein assay (BioRad Laboratories). Protein samples were analyzed as described in the “in vitro” section.

AcH3 = experiment: In-vivo AcH3 in hippocampus of wild type mice; conditions: 1 h after single dose 40 mg/kg i.p.
Description: as §1

aged-Tg2576 mice = experiment: Memory function in aged-Tg2576 mice: Fear Conditioning (FC); type: in vivo; conditions: Tg2576 mice (16-18 month), chronic treatment 3-5 weeks, 20 mg/Kg i.p.; standard error in brackets
Description: The effect on memory function of compounds of the invention was studied in Tg2576 mice (16-18 month) after a chronic treatment of 3-5 weeks by using two different behavioral tasks: the Fear Conditioning (FC) and the Morris water maze (MWM) test, Table 5 (below)
The behavioural procedure of FC task involved three phases: habituation, training and testing. During habituation phase, mice were habituated to the conditioning box (context) for 5 min with no stimuli presented. 24 hours later (training phase), mice were placed in the training chamber and allowed to explore for 2 min, afterward, a footshock (0.3 mA) unconditioned stimulus was administered (2 s) and 30 s after mice were returned to their home cage. Mice were returned to the conditioning chamber 24 h after training and allowed to explore the context for 2 min, during which freezing behavior was recorded (contextual long term memory). Freezing scores were expressed as percentages. The conditioning procedure was carried out in a StartFear system (Panlab S.L., Barcelona, Spain) that allows recording and analysis of the signal generated by the animal movement through a high sensitivity Weight Transducer system. The analogical signal is transmitted to the FREEZING and STARTLE software modulated through the load cell unit for recording purposes and posterior analysis in terms of activity/immobility.

[1] = tested on: acetylated histone 3 at Lys9 (AcH3K9); experiment: HDAC activity using SHSY-5Y cell line (Western blot, histone 3 acetylation); type: cell-based, human; conditions: SHSY-5Y cells, 24 hours
Description: HDAC inhibition leads to the corresponding functional response, increase in AcH3 level. Therefore, the cellular assay to conclude HDAC activity was assessed by Western blot analysis using specific antibodies against acetylated histone 3 at Lys9 (AcH3K9). Cell cultures were treated at 100 nM, 500 nM, 1 μM and/or 5 μM with compounds of the invention or known PDE inhibitors during 24 hours and, Table 1 (below) describes the functional activity: histone 3 acetylation level (AcH3) vs basal (no treatment).
A human neuroblastoma cell line (SHSY-5Y) was used. Cell line was obtained from ATCC (CRL-2266) and cultured in 35 mm plates (Becton Dickinson, NJ).
The cells were grown to 90% confluence at 37° C. in an atmosphere of 5% CO2 and in Dulbecco's modified Eagle's medium supplemented with Glutamax (Gibco, Invitrogen, CA), 100 units/ml penicillin/streptomycin, 1×MEM nonessential amino acids and 10% fetal bovine serum (Gibco, Invitrogen, CA).
Cells were collected and sonicated in a buffer containing a cold lysis buffer with protease inhibitors (0.2 M NaCl, 0.1 M HEPES (4-(2-hydroxyethyl)-1-piperazineethanesulfonic acid), 10% glycerol, 200 mM NaF, 2 mM Na4P2O7, 5 mM EDTA (ethylenediaminetetraacetic acid), 1 mM EGTA (ethylene glycol tetraacetic acid), 2 mM DTT (dithiothreitol), 0.5 mM PMSF (phenylmethylsulfonyl fluoride), 1 mM Na3VO4 and Complete Protease Inhibitor Cocktail, Roche Diagnostics), centrifuged at 14,000×g 4° C. for 20 min and the supernatant was aliquoted and stored at −80° C. Total protein concentrations were determined using the BioRad Bradford protein assay (BioRad Laboratories).
Protein samples were mixed with Laemmli sample buffer, resolved onto Sodium Dodecyl Sulfate (SDS)-polyacrylamide gels and transferred to nitrocellulose membrane. The membranes were blocked with 5% milk, 0.05% Tween-20 in PBS (Phosphate-Buffered Saline) or TBS (Tris-Buffered Saline) followed by overnight incubation with the following primary antibodies: rabbit polyclonal anti-acetylated Histone 3 (acetyl K9) (Cell Signalling Technology), rabbit polyclonal anti-total Histone 3 (Millipore), in the corresponding buffer. All the antibodies were used at 1:1000 dilution except the mouse monoclonal anti-β-actin which was used at 1:50.000. Following two washes in TBS/Tween20 and one wash in TBS alone, immunolabeled protein bands were detected by using HRP-conjugated anti-rabbit or anti-mouse antibody (Santa Cruz Biotechnology; dilution 1:5.000) following an enhanced chemiluminescence system (ECL, GE Healthcare Bioscience, Buckinghamshire, UK), and autoradiographic exposure to HyperfilmtECL (GE Healthcare Bioscience). Quantity One™ software v.4.6.3 (Bio-Rad) was used for quantification.

## CCCc1nn(C)c2c(=O)[nH]c(-c3cc(Cc4ccc(C(=O)Nc5ccccc5N)cc4)ccc3OCC)nc12 [Example 1-11, N-(2-aminophenyl)-4-[[4-ethoxy-3-(1-methyl-7-oxo-3-propyl-6H-pyrazolo[4,3-d]pyrimidin-5-yl)phenyl]methyl]benzamide]
PDE5A1
  IC50: 0.01 to 1 µM
pCREB
  pCREB increment vs basal: +++ (basal x2≤(+++)<basal x3)
AcH3
  AcH3 increment vs basal: ++ (basal x1≤(++)<basal x2)
aged-Tg2576 mice
  FC (% freezing): 59.65 (9.2)^c %
[1]; compound concentration 100 nM
  AcH3: increment in Histone 3 acetylation level vs basal: ++ (basal x1.4≤(++)<basal x2)
[1]; compound concentration 500 nM
  AcH3: increment in Histone 3 acetylation level vs basal: ++ (basal x1.4≤(++)<basal x2)
[1]; compound concentration 1 μM
  AcH3: increment in Histone 3 acetylation level vs basal: +++ (basal x2≤(+++)<basal x3)
